Assay results reported in US12559492B2, “BRAF degraders” (C4 Therapeutics, Inc., priority 2020, dated 2026).
Structures can show the parent of a compound that is named as a salt.

Target: BRAF^V600E protein (Homo sapiens, UniProt P15056, V600E)
Assay: HiBiT cellular BRAF V600E degradation assay
Assay type: cell-based
Conditions: 24 h incubation; for DC50: A375.10 cells (HiBiT tag knocked in at N-terminal of BRAF V600E), concentration at which 50% of total cellular BRAF V600E is degraded; for Emax: A375.10 cells, Emax = amount of residual protein remaining in the cell after compound treatment, read-out: HiBit 24 h Emax

BRAF^V600E protein, sequence (P15056 whole entry V600E): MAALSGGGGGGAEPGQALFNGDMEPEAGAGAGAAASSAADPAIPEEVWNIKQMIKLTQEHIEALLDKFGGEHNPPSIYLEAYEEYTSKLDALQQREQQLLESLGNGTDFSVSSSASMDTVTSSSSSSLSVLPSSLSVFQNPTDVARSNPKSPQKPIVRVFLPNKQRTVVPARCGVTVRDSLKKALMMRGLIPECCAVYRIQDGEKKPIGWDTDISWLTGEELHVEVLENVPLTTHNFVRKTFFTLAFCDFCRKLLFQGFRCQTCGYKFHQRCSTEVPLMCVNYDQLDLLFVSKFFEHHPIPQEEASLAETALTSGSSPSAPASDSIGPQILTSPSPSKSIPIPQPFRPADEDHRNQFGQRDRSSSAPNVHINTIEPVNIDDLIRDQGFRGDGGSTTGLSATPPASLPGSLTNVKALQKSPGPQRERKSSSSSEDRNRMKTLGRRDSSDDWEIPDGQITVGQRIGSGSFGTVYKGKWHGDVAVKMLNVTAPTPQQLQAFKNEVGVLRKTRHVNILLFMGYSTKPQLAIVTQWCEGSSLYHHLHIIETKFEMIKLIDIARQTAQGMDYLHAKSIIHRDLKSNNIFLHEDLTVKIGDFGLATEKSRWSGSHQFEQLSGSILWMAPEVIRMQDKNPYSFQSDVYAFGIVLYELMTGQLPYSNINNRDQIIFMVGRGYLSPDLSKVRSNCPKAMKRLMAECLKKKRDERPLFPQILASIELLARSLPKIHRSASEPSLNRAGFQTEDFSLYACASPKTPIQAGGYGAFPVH

SMILES	DC50 [nM]	Emax [%]
CCN(C)S(=O)(=O)Nc1ccc(F)c(C(=O)c2c[nH]c3ncc(-c4ccc(N5CCN(C(=O)CN6CCC(N7CCN(C8CCC(=O)NC8=O)C(=O)C7)C(F)(F)C6)CC5)cc4)cc23)c1F (centres unmarked) [Example 172, 5-[4-[4-[2-[4-[4-(2,6-dioxo-3-piperidyl)-3-oxo-piperazin-1-yl]-3,3-difluoro-1-piperidyl]acetyl]piperazin-1-yl]phenyl]-3-[3-[[ethyl(methyl)sulfamoyl]amino]-2,6-difluoro-benzoyl]-1H-pyrrolo[2,3-b]pyridine]	4.67	6.28
CCN(C)S(=O)(=O)Nc1ccc(F)c(C(=O)c2c[nH]c3ncc(-c4ccc(N5CCC(N(C)CC(=O)N6CCC(c7ccc(NC8CCC(=O)NC8=O)cn7)CC6)CC5)nc4)cc23)c1F (centres unmarked) [Example A101, 5-[6-[4-[[2-[4-[5-[(2,6-Dioxopiperidin-3-yl)amino]pyridin-2-yl]piperidin-1-yl]-2-oxoethyl]-methylamino]piperidin-1-yl]pyridin-3-yl]-3-[3-[[ethyl(methyl)sulfamoyl]amino]-2,6-difluorobenzoyl]-1H-pyrrolo[2,3-b]pyridine; hydrochloride]	20	19
O=C1CCC(Nc2ccc(N3CCN(CC(=O)N4CCN(c5ccc(-c6cnc7[nH]cc(C(=O)c8c(F)ccc(NS(=O)(=O)N9CCCC9)c8F)c7c6)cn5)CC4)CC3)cc2)C(=O)N1 (centres unmarked) [Example A73, N-[3-[5-[6-[4-[2-[4-[4-[(2,6-Dioxopiperidin-3-yl)amino]phenyl]piperazin-1-yl]acetyl]piperazin-1-yl]pyridin-3-yl]-1H-pyrrolo[2,3-b]pyridine-3-carbonyl]-2,4-difluorophenyl]pyrrolidine-1-sulfonamide]	6	19
CCN(C)S(=O)(=O)Nc1ccc(F)c(C(=O)c2c[nH]c3ncc(-c4cnc(N5CCN(C(=O)CC6(O)CCN(c7ccc(N8CCC(=O)NC8=O)cc7Cl)CC6)CC5)nc4)cc23)c1F [Example 213, 5-[2-[4-[2-[1-[2-chloro-4-(2,4-dioxohexahydropyrimidin-1-yl)phenyl]-4-hydroxy-4-piperidyl]acetyl]piperazin-1-yl]pyrimidin-5-yl]-3-[3-[[ethyl(methyl)sulfamoyl]amino]-2,6-difluoro-benzoyl]-1H-pyrrolo[2,3-b]pyridine]	0.42	6.06
CCN(C)S(=O)(=O)Nc1ccc(F)c(C(=O)c2c[nH]c3ncc(-c4cnc(N5CCN(C(=O)CC6(O)CCN(c7ccc(N[C@@H]8CCC(=O)NC8=O)cc7F)CC6)CC5)nc4)cc23)c1F [Example 174, 5-[2-[4-[2-[1-[4-[[(3R)-2,6-dioxo-3-piperidyl]amino]-2-fluoro-phenyl]-4-hydroxy-4-piperidyl]acetyl]piperazin-1-yl]pyrimidin-5-yl]-3-[3-[[ethyl(methyl)sulfamoyl]amino]-2,6-difluoro-benzoyl]-1H-pyrrolo[2,3-b]pyridine]	2.39	9.44
CCN(C)S(=O)(=O)Nc1ccc(F)c(C(=O)c2c[nH]c3ncc(-c4ccn(C5CCN(C(=O)CC6(O)CCN(c7ccc(NC8CCC(=O)NC8=O)cc7F)CC6)CC5)c(=O)c4)cc23)c1F (centres unmarked) [Example 181, 5-[1-[1-[2-[1-[4-[(2,6-dioxo-3-piperidyl)amino]-2-fluoro-phenyl]-4-hydroxy-4-piperidyl]acetyl]-4-piperidyl]-2-oxo-4-pyridyl]-3-[3-[[ethyl(methyl)sulfamoyl]amino]-2,6-difluoro-benzoyl]-1H-pyrrolo[2,3-b]pyridine]	11.5	13.5
CCN(C)S(=O)(=O)Nc1ccc(F)c(C(=O)c2c[nH]c3ncc(-c4ccc(N5CCN(C(=O)CC6(O)CCN(c7ccc(NC8CCC(=O)NC8=O)cc7F)CC6)CC5)c(Cl)c4)cc23)c1F (centres unmarked) [Example 180, 5-[3-chloro-4-[4-[2-[1-[4-[(2,6-dioxo-3-piperidyl)amino]-2-fluoro-phenyl]-4-hydroxy-4-piperidyl]acetyl]piperazin-1-yl]phenyl]-3-[3-[[ethyl(methyl)sulfamoyl]amino]-2,6-difluoro-benzoyl]-1H-pyrrolo[2,3-b]pyridine]	4.62	8.93
